Experiments:
Type in all cases: functional
Bemisia tabaci [1] = experiment: Resistance ratio of LC50 for field-collected population of Bemisia tabaci (sweet potato whitefly) biotype B GCC-AM (p) (F2) adults to LC50 for laboratory strain of Bemisia tabaci (sweet potato whitefly) biotype B adults
Bemisia tabaci [2] = experiment: Insecticidal activity against laboratory strain of Bemisia tabaci (sweet potato whitefly) biotype B adults infested in cotton seedlings cut stem assessed as mortality measured after 5 days by stabilization treatment based systemic uptake bioassay
Bemisia tabaci [3] = experiment: Insecticidal activity against field-collected population of Bemisia tabaci (sweet potato whitefly) biotype B Myakka (F2) eggs in cotton seedlings cut stem assessed as mortality measured after 14 days by stabilization treatment based systemic uptake bioassay
Bemisia tabaci [4] = experiment: Resistance ratio of LC50 for field-collected population of Bemisia tabaci (sweet potato whitefly) biotype B GCC-AM ST (F4-5) adults to LC50 for laboratory strain of Bemisia tabaci (sweet potato whitefly) biotype B adults
Bemisia tabaci [5] = experiment: Insecticidal activity against field-collected population of Bemisia tabaci (sweet potato whitefly) biotype B Devil's garden KAC (F3) eggs in cotton seedlings cut stem assessed as mortality measured after 14 days by stabilization treatment based systemic uptake bioassay
Bemisia tabaci [6] = experiment: Insecticidal activity against field-collected population of Bemisia tabaci (sweet potato whitefly) biotype B GCC-EV-Tom (F4) eggs in cotton seedlings cut stem assessed as mortality measured after 14 days by stabilization treatment based systemic uptake bioassay
Bemisia tabaci [7] = experiment: Insecticidal activity against field-collected population of Bemisia tabaci (sweet potato whitefly) biotype B Homestead #1 (F2-F3) eggs in cotton seedlings cut stem assessed as mortality measured after 14 days by stabilization treatment based systemic uptake bioassay
Bemisia tabaci [8] = experiment: Insecticidal activity against field-collected population of Bemisia tabaci (sweet potato whitefly) biotype B GCC-AM ST (F4-5) adults infested in cotton seedlings cut stem assessed as mortality measured after 5 days by stabilization treatment based systemic uptake bioassay
Bemisia tabaci [9] = experiment: Insecticidal activity against field-collected population of Bemisia tabaci (sweet potato whitefly) biotype B Cortez #1 (F4) adults infested in cotton seedlings cut stem assessed as mortality measured after 5 days by stabilization treatment based systemic uptake bioassay
Bemisia tabaci [10] = experiment: Insecticidal activity against field-collected population of Bemisia tabaci (sweet potato whitefly) biotype B Homestead #1 (F4) eggs in cotton seedlings cut stem assessed as mortality measured after 14 days by stabilization treatment based systemic uptake bioassay
Bemisia tabaci [11] = experiment: Insecticidal activity against field-collected population of Bemisia tabaci (sweet potato whitefly) biotype B Parrish (F3) eggs in cotton seedlings cut stem assessed as mortality measured after 14 days by stabilization treatment based systemic uptake bioassay
Bemisia tabaci [12] = experiment: Insecticidal activity against field-collected population of Bemisia tabaci (sweet potato whitefly) biotype B GCC-AM (p) (F2) adults infested in cotton seedlings cut stem assessed as mortality measured after 5 days by stabilization treatment based systemic uptake bioassay
Bemisia tabaci [13] = experiment: Resistance ratio of LC50 for field-collected population of Bemisia tabaci (sweet potato whitefly) biotype B Cortez #1 (F4) adults to LC50 for laboratory strain of Bemisia tabaci (sweet potato whitefly) biotype B adults

CNC(=O)c1cc(C#N)cc(C)c1NC(=O)c1cc(Br)nn1-c1ncccc1Cl [CYANTRANILIPROLE]
RatioLC50 (Bemisia tabaci [1]): 1.207
LC50 (Bemisia tabaci [2]): 0.049 mgAi/L
LC50 (Bemisia tabaci [3]): 0.023 mgAi/L
RatioLC50 (Bemisia tabaci [4]): 0.752
LC50 (Bemisia tabaci [5]): 0.033 mgAi/L
LC50 (Bemisia tabaci [6]): 0.034 mgAi/L
LC50 (Bemisia tabaci [7]): 0.013 mgAi/L
LC50 (Bemisia tabaci [8]): 0.037 mgAi/L
LC50 (Bemisia tabaci [9]): 0.058 mgAi/L
LC50 (Bemisia tabaci [10]): 0.023 mgAi/L
LC50 (Bemisia tabaci [11]): 0.015 mgAi/L
LC50 (Bemisia tabaci [12]): 0.059 mgAi/L
RatioLC50 (Bemisia tabaci [13]): 1.174
